Peptide text beside a SMILES is read from it.
Columns and labels:
[1] = system: CD4 T cells co-cultured with autologous DCs from PBMCs; format: cell-based, human
HLA-DRB1*1301 = HLA-DRB1*1301 (Homo sapiens, UniProt P01903+P01911, A100E/A169T/K41T/L162R/M171V/P40S/Q125H/Q178H/Q39Y/Q99D/R42S/S66N/T262R/W38E/Y61H); assay: In vitro class II HLA binding competition assay; details: competition with fluorescent-labeled reference peptide, class II HLA monomers, 24-hours, test peptide 100,000 nM to 100 nM, time-resolved fluorescence
Method: (§1) EpiVax conducted in vitro quantification of peptide-HLA binding affinity utilizing a competition assay format per the methodology described in ([35]). Briefly, a fluorescent-labeled, high-binding reference peptide and titrating concentrations of test peptide were incubated in a 96-well plate format with limiting concentrations of class II HLA monomers in aqueous buffer for 24-hours. Post incubation, the mixtures were moved to a 96-well plate coated with anti-HLA-DR antibody to capture HLA-peptide complexes. Time-resolved fluorescence measurement of the bound labeled reference peptide complex present in each mixture were detected with a europium-linked probe via fluorescent spectrophotometry using a SpectraMax M5 system. HLA binding affinity of each test peptide was expressed as the percent inhibition of reference peptide binding. Percent inhibition values (across the test peptide titration range) were used to calculate the half maximal inhibitory concentration (IC50) of each test peptide. For these studies, test peptides were assessed using a range of final concentrations from 100,000 nM to 100 nM and all peptides were reconstituted in dimethyl sulfoxide (DMSO).

HLA-DRB1*0401 = biological target: T1, HLA-DRB1*0401 (Homo sapiens, UniProt P01903+P01911, A100K/A169T/F76Y/I96L/K127E/L162R/M171V/N62H/P40V/Q125Y/R42H/S133A/S149N/S66Y/V115G/V209L/W38E); assay: In vitro class II HLA binding competition assay
T1 construct: purchased
Method: as §1

HLA-DRB1*1501 = biological target: T2, HLA-DRB1*1501 (Homo sapiens, UniProt P01903+P01911); assay: In vitro class II HLA binding competition assay
T2 construct: purchased
Method: as §1

HLA-DRB1*0801 = HLA-DRB1*0801 (Homo sapiens, UniProt P01903+P01911, A100R/A103L/A169T/D86S/F76Y/H45Y/I96F/K41T/L162R/M171V/P40S/Q125H/Q178H/Q39Y/Q99D/R218S/R42G/S66Y/V115G/W38E); assay: In vitro class II HLA binding competition assay; details: competition with fluorescent-labeled reference peptide, class II HLA monomers, 24-hours, test peptide 100,000 nM to 100 nM, time-resolved fluorescence
Method: as §1

HLA-DRB1*0701 = HLA-DRB1*0701 (Homo sapiens, UniProt P01903+P01911, A100R/A102G/A103Q/D57E/D86V/E43K/F76Y/K127E/L162R/M171V/P40G/Q125H/Q99D/R33Q/R42Y/R54Q/S133A/S66F/T210M/V115G/Y107V/Y59L/Y89S); assay: In vitro class II HLA binding competition assay
Method: as §1

HLA-DRB1*0101 = biological target: T3, HLA-DRB1*0101 (Homo sapiens, UniProt P01903+P01911, A100R/D57E/F55L/F60I/F76Y/I96L/L162R/M171V/P40L/Q125E/R42F/V115G/Y59C); assay: In vitro class II HLA binding competition assay
T3 construct: purchased
Method: as §1

[2] = DR1 donors N=5, positive = Stimulation Index ≥1.5-fold above baseline, ICCS, 5 µg/mL peptide
[3] = DR3 donors N=6, positive = Stimulation Index ≥1.5-fold above baseline, ICCS, 5 µg/mL peptide
[4] = DR4 donors N=10, positive = Stimulation Index ≥1.5-fold above baseline, ICCS, 5 µg/mL peptide
[5] = DR7 donors N=4, positive = Stimulation Index ≥1.5-fold above baseline, ICCS, 5 µg/mL peptide
[6] = DR8 donors N=4, positive = Stimulation Index ≥1.5-fold above baseline, ICCS, 5 µg/mL peptide
[7] = DR9 donors N=4, positive = Stimulation Index ≥1.5-fold above baseline, ICCS, 5 µg/mL peptide
[8] = DR11 donors N=4, positive = Stimulation Index ≥1.5-fold above baseline, ICCS, 5 µg/mL peptide
[9] = DR13 donors N=7, positive = Stimulation Index ≥1.5-fold above baseline, ICCS, 5 µg/mL peptide
[10] = DR15 donors N=7, positive = Stimulation Index ≥1.5-fold above baseline, ICCS, 5 µg/mL peptide

For `CC[C@H](C)[C@H](NC(C)=O)C(=O)N[C@@H](CCC(=O)O)C(=O)N[C@@H](CCC(N)=O)C(=O)N[C@@H](Cc1ccc(O)cc1)C(=O)N[C@@H](CC(C)C)C(=O)N[C@@H](CCCCN)C(=O)N[C@@H](CCCCN)C(=O)N[C@H](C(=O)N[C@@H](CCC(N)=O)C(=O)N[C@@H](Cc1ccc(O)cc1)C(=O)N[C@@H](CO)C(=O)N[C@@H](CC(C)C)C(=O)N[C@@H](CO)C(=O)N[C@H](C(=O)N[C@@H](CCC(=O)O)C(=O)N[C@@H](Cc1c[nH]c2ccccc12)C(=O)N[C@@H](CO)C(=O)N1CCC[C@H]1C(=O)N[C@@H](CS)C(N)=O)[C@@H](C)O)[C@@H](C)CC` [ICS7] (Ac-IEQYLKKIQYSLSTEWSPC-NH2), the “median SI, IFN-γ recall responses” value [1] was 1.75, the “Percentage of donors demonstrating IFN-γ responses, DR1” value ([1]; DR1 donors N=5, positive = Stimulation Index ≥1.5-fold above baseline, ICCS after 14-day co-culture, 5 µg/mL peptide) was 60% and the “Percentage of donors demonstrating IL-2 responses, DR1” value [1, 2] was 60%. For the same compound, the “Percentage of donors demonstrating IL-4 responses, DR1” value [1, 2] was 20%, the “Percentage of donors demonstrating IL-10 responses, DR1” value [1, 2] was 0% and the “Percentage of donors demonstrating TNF-α responses, DR1” value [1, 2] was 40%. The “Percentage of donors demonstrating IFN-γ responses, DR3” value ([1]; DR3 donors N=6, positive = Stimulation Index ≥1.5-fold above baseline, ICCS after 14-day co-culture, 5 µg/mL peptide) was 67%, the “Percentage of donors demonstrating IL-2 responses, DR3” value [1, 3] was 33% and the “Percentage of donors demonstrating IL-4 responses, DR3” value [1, 3] was 0%. The “Percentage of donors demonstrating IL-10 responses, DR3” value [1, 3] was 0%, the “Percentage of donors demonstrating TNF-α responses, DR3” value [1, 3] was 50% and the “Percentage of donors demonstrating IFN-γ responses, DR4” value ([1]; DR4 donors N=10, positive = Stimulation Index ≥1.5-fold above baseline, ICCS after 14-day co-culture, 5 µg/mL peptide) was 70%. The “Percentage of donors demonstrating IL-2 responses, DR4” value [1, 4] was 70%, the “Percentage of donors demonstrating IL-4 responses, DR4” value [1, 4] was 0% and the “Percentage of donors demonstrating IL-10 responses, DR4” value [1, 4] was 10%. The “Percentage of donors demonstrating TNF-α responses, DR4” value [1, 4] was 80%, the “Percentage of donors demonstrating IFN-γ responses, DR7” value ([1]; DR7 donors N=4, positive = Stimulation Index ≥1.5-fold above baseline, ICCS after 14-day co-culture, 5 µg/mL peptide) was 75% and the “Percentage of donors demonstrating IL-2 responses, DR7” value [1, 5] was 75%. The “Percentage of donors demonstrating IL-4 responses, DR7” value [1, 5] was 0%, the “Percentage of donors demonstrating IL-10 responses, DR7” value [1, 5] was 25% and the “Percentage of donors demonstrating TNF-α responses, DR7” value [1, 5] was 75%. The “Percentage of donors demonstrating IFN-γ responses, DR8” value ([1]; DR8 donors N=4, positive = Stimulation Index ≥1.5-fold above baseline, ICCS after 14-day co-culture, 5 µg/mL peptide) was 75%, the “Percentage of donors demonstrating IL-2 responses, DR8” value [1, 6] was 75% and the “Percentage of donors demonstrating IL-4 responses, DR8” value [1, 6] was 0%. For the same compound, the “Percentage of donors demonstrating IL-10 responses, DR8” value [1, 6] was 0%, the “Percentage of donors demonstrating TNF-α responses, DR8” value [1, 6] was 100% and the “Percentage of donors demonstrating IFN-γ responses, DR9” value ([1]; DR9 donors N=4, positive = Stimulation Index ≥1.5-fold above baseline, ICCS after 14-day co-culture, 5 µg/mL peptide) was 50%. For the same compound, the “Percentage of donors demonstrating IL-2 responses, DR9” value [1, 7] was 75%, the “Percentage of donors demonstrating IL-4 responses, DR9” value [1, 7] was 0% and the “Percentage of donors demonstrating IL-10 responses, DR9” value [1, 7] was 0%. The “Percentage of donors demonstrating TNF-α responses, DR9” value [1, 7] was 50%, the “Percentage of donors demonstrating IFN-γ responses, DR11” value ([1]; DR11 donors N=4, positive = Stimulation Index ≥1.5-fold above baseline, ICCS after 14-day co-culture, 5 µg/mL peptide) was 25% and the “Percentage of donors demonstrating IL-2 responses, DR11” value [1, 8] was 25%. For the same compound, the “Percentage of donors demonstrating IL-4 responses, DR11” value [1, 8] was 0%, the “Percentage of donors demonstrating IL-10 responses, DR11” value [1, 8] was 0% and the “Percentage of donors demonstrating TNF-α responses, DR11” value [1, 8] was 25%. For the same compound, the “Percentage of donors demonstrating IFN-γ responses, DR13” value ([1]; DR13 donors N=7, positive = Stimulation Index ≥1.5-fold above baseline, ICCS after 14-day co-culture, 5 µg/mL peptide) was 86%, the “Percentage of donors demonstrating IL-2 responses, DR13” value [1, 9] was 57% and the “Percentage of donors demonstrating IL-4 responses, DR13” value [1, 9] was 0%. The “Percentage of donors demonstrating IL-10 responses, DR13” value [1, 9] was 14%, the “Percentage of donors demonstrating TNF-α responses, DR13” value [1, 9] was 71% and the “Percentage of donors demonstrating IFN-γ responses, DR15” value ([1]; DR15 donors N=7, positive = Stimulation Index ≥1.5-fold above baseline, ICCS after 14-day co-culture, 5 µg/mL peptide) was 43%. For the same compound, the “Percentage of donors demonstrating IL-2 responses, DR15” value [1, 10] was 57%, the “Percentage of donors demonstrating IL-4 responses, DR15” value [1, 10] was 0% and the “Percentage of donors demonstrating IL-10 responses, DR15” value [1, 10] was 14%. For the same compound, the “Percentage of donors demonstrating TNF-α responses, DR15” value [1, 10] was 57%, the IC50 (HLA-DRB1*1301) was 17.9 µM and the IC50 (HLA-DRB1*0401) was 32.8 µM. The IC50 (HLA-DRB1*1501) was 63.2 µM, the IC50 (HLA-DRB1*0801) was 6.09 µM and the IC50 (HLA-DRB1*0701) was 2.76 µM. For the same compound, the IC50 (HLA-DRB1*0101) was > 100 µM.
